According to US9700578B2, “Use of nitrite salts for the treatment of cardiovascular conditions” (The United States of America as represented by the …, priority 2003, dated 2017):

Tests used:
[1] = tested on: hypoxic-induced pulmonary hypertension; experiment: Comparison of inhaled nitrite and NO gas during hypoxic-induced pulmonary vasoconstriction: efficacy and duration; format: in vivo, newborn lambs; details: for reduction (correction) of hypoxic-induced pulmonary hypertension: hypoxia, NO gas 20 ppm or nitrite aerosol for 20 minutes
From the text: NO gas was introduced into the inspiratory limb of the breathing circuit. The inspired concentration of NO was continuously measured by chemiluminescence (CLD 700 AL, Eco Physics Inc, Ann Arbor, Mich.) in the inspiratory limb of the ventilator loop.
efficacy and duration of effect. This protocol was designed to compare the efficacy of nitrite with the clinical standard, 20 ppm inhaled NO gas. […] A second purpose was to determine the duration of effect of a short nitrite nebulization versus NO gas inhalation on hemodynamic and physiological measurements during prolonged hypoxic-induced pulmonary vasoconstriction. After baseline measurements were performed, the lambs were made hypoxic as described above for 35 minutes. Ten minutes after initiation of hypoxia, a 20-minute period of NO gas inhalation was initiated (20 ppm), with continuation of hypoxia for 5 minutes after cessation of NO gas delivery. Lambs were then allowed to recover for one hour. Again, after baseline measurements were made, a second 90-minute period of hypoxia was initiated.

[2] = tested on: right middle cerebral artery vasospasm
Protocol: An autologous arterial blood clot was placed around the right middle cerebral artery (R MCA) of 14 anesthetized Cynomolgus monkeys at day 0. […] Cerebral arteriogram was performed before clot placement and on days 7 and 14, for assessment of DCV. Arteriographic vasospasm was defined as a 25% or greater reduction in the proximal 14 mm of the R MCA area as measured on the AP projection of the cerebral arteriogram (blinded assessment). Mean arterial blood pressure was measured and blood samples were collected daily from day 0; the cerebral spinal fluid samples were collected on day 0, 7, and 14.

[3] = tested on: forearm circulation; experiment: Sodium nitrite infusion into the brachial artery, forearm blood flow by venous-occlusion plethysmography
From the text: (§1) The protocol was approved by the Institutional Review Board of the National Heart, Lung and Blood Institute, and informed consent was obtained from all volunteer subjects. […] An additional 10 subjects returned three-six months later for a second series of experiments with low dose nitrite infusion. […] No volunteer subject was allowed to take any medication (oral contraceptive agents allowed), vitamin supplements, herbal preparations, nutriceuticals or other “alternative therapies” for at least one month prior to study and were not be allowed to take aspirin for one week prior to study.
(§2) Brachial artery and antecubital vein catheters were placed into the arm, with the intraarterial catheter connected to a pressure transducer for blood pressure measurements and an infusion pump delivering normal saline at 1 mL/min. After 20 minutes of rest, baseline arterial and venous blood samples were obtained and forearm blood flow measurements were made by strain gauge venous-occlusion plethysmography, as previously reported (Panza et al., Circulation, 87, 1468-74, 1993). A series of 7 blood flow measurements were averaged for each blood flow determination. A series of measurements termed Parts I and II were performed in randomized order to minimize a time effect on the forearm blood flow response during nitrite infusion.
(§3) Part I: Following 20 minutes of 0.9% NaCl (saline) solution infusion at 1 mL/min into the brachial artery, arterial and venous blood samples were obtained for the assays described below and forearm blood flow measured. Exercise was performed by repetitive hand-grip at one-third of the predetermined maximum grip strength using a hand-grip dynamometer (Technical Products Co.) (Gladwin et al., Proc Natl Acad Sci USA, 97, 9943-8, 2000; Gladwin et al., Proc Natl Acad Sci USA, 97, 11482-11487, 2000; Cannon et al., J Clin Invest, 108, 279-87, 2001). Each contraction lasted for 10 seconds followed by relaxation for 5 seconds. Following 5 minutes of exercise, forearm blood flow measurements were obtained during relaxation phases of exercise, and arterial and venous samples collected. Following a 20-minute rest period with continued infusion of saline into the brachial artery, repeated baseline blood samples and forearm blood flow measurements were obtained. L-NMMA was then infused at a rate of 1 mL/min (8 μmol/min) into the brachial artery. Following 5 minutes of L-NMMA infusion, forearm blood flow was measured, and arterial and venous blood samples obtained. Forearm exercise was then initiated in that arm during continued L-NMMA infusion. Forearm blood flow was measured and blood samples obtained after 5 minutes of exercise during continued L-NMMA infusion (FIG. 1).
(§4) Part II: After a 30 minute rest period with continued infusion of saline, baseline measurements were obtained, the saline infusion was then stopped, and infusion of nitrite (NaNO2 36 μmol/ml in 0.9% saline) at 1 ml/min was started. […] For the final 9 subjects studied, 0.01-0.03 mM sodium bicarbonate was added to the normal saline, so as to titrate pH to 7.0-7.4. The nitrite solution was light protected and nitrite levels and free NO gas in solution measured by reductive chemiluminescence after all experiments (Gladwin et al., J Biol Chem, 21, 21, 2002).

[4] = as above; details: human, in vivo
From the text: as §1, §2, §3, §4

[5] = tested on: forearm circulation; details: concentrations of 200 μM in the forearm, Lauer et al.; cited from earlier work
[6] = tested on: aortic ring preparations; details: cited from earlier work

O=NO [sodium nitrite]
methemoglobin concentration after nitrite nebulization ([1]; baseline 2.1±0.1): 2.8±0.2%
duration of sustained vasodilation after discontinuation of inhalation ([1]; hypoxia continued 60 minutes after nebulization): more than 60 minutes
reduction (correction) of hypoxic-induced pulmonary hypertension [1]: about 60%
reduction (correction) of hypoxic-induced pulmonary hypertension ([1]; listed as nitrite): 60-70%
blood levels of nitrite ([2]; 45 mg/kg and 60 mg/kg per day): 10000 to 60000 nM
increases in blood methemoglobin concentrations ([2]; 45 mg/kg and 60 mg/kg per day): ≤ 2%
methemoglobin formation ([2]; 45 mg/kg and 60 mg/kg per day): < 5%
mean reduction in the R MCA area on day 7 after SAH ([2]; 45 mg/kg and 60 mg/kg per day i.v. for 14 days, saline 45±5): 8±9%
systemic hypotension ([2]; 14 days infusion): without systemic hypotension
toxicity ([2]; 14 days infusion): no clinical or pathological evidence of nitrite toxicity
development of significant vasospasm ([2]; nitrite infused animals, n=6): no animals developed significant vasospasm
increase in blood flow, low dose ([3]; 360 nmoles per minute): about 22%
forearm blood flow after low-dose nitrite infusion ([3]; 400 nmol/mL at 1 mL/min for five minutes, 10 subjects, baseline 3.49±0.24): 4.51±0.33 ml/min per 100 mL tissue
systemic level of nitrite (contralateral arm) ([3]; 36 μmol/min into brachial artery): 16 µM
decrease of mean blood pressure ([3]; 36 μmol/min into brachial artery, systemic nitrite 16 μM): approximately 7 mm Hg
venous hemoglobin oxygen saturation, pO2 and pH versus pre-infusion values ([3]; 36 μmol/min, 5 min, at rest): significantly increased
forearm nitrite concentration, low dose, at rest ([3]; dose reduced 2-logs (360 nmoles per minute)): 2 µM
forearm nitrite concentration, low dose, during exercise ([3]; dose reduced 2-logs, exercise): 0.9 µM
venous nitrite level after low-dose infusion, during exercise ([3]; low dose, exercise): 909 ± 113 nM
forearm blood flow 30 minutes after cessation of nitrite infusion ([3]; saline for 30 min after infusion, pre-nitrite value 3.94±0.38): 4.79±0.37 mL/min per 100 mL tissue
systemic blood pressure 30 minutes after cessation of nitrite infusion ([3]; saline for 30 min after infusion, pre-nitrite value 89.2±3.5): 82.1±3.7 mm Hg
concentration at 5 min ([4]; both, 36 μmol/min, nitrite level in the ipsilateral antecubital vein (regional forearm nitrite concentration), 36 μmol/min into brachial artery, 5 min, 18 healthy subjects): ~222000 nM
concentration at 5 min ([4]; 0.36 μmol/min, mean venous nitrite level after low-dose infusion, at rest, low dose, five-minute infusion, baseline 176±17): 2560 ± 462 nM
concentration at 5 min ([4]; 360 nmoles per minute, forearm nitrite concentration, low dose, at rest, dose reduced 2-logs (360 nmoles per minute)): ~2000 nM
vasodilatory effect in human forearm [5]: no vasodilatory effects
nitrite concentration that stimulated vasodilation of aortic ring preparations ([6]; Furchgott et al. 1953): 100 µM
levels of nitrite shown to vasodilate in vitro ([6]; literature): > 100,000 nM
